# According to article PMC10893631, “Receptor-based pharmacophore modeling, molecular docking, synthesis and biological evaluation of novel VEGFR-2, FGFR-1, and BRAF multi-kinase inhibitors” (BMC Chemistry, 2024):
# Key:
# Test in all cases: NCI SRB growth inhibition (single dose 10 µM / five-dose)
# Format in all cases: cell-based, human
# SW-620 = conditions: Homo sapiens; for inhibition at 10 µM: SW-620 (Colon cancer), read-out: GI%; for GI50: SW-620, Colon cancer, five-dose
# Outline: (§1)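 Two-stage NCI-60 screen: single-dose test first, then five-dose testing. Growth is scored by sulforhodamine B staining of TCA-fixed cells relative to a time-zero plate, and TGI is taken where Ti = Tz.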
# MDA-MB-468 = conditions: Homo sapiens; for inhibition at 10 µM: MDA-MB-468 (Breast cancer), read-out: GI%; for GI50: MDA-MB-468, Breast cancer, five-dose
# Outline: as §1
# RXF 393 = conditions: Homo sapiens; for inhibition at 10 µM: RXF 393 (Renal cancer), read-out: GI%; for GI50: RXF 393, Renal cancer, five-dose
# Outline: as §1
# NCI-H226 = conditions: Homo sapiens; for inhibition at 10 µM: NCI-H226 (Non-small cell lung cancer), read-out: GI%; for GI50: NCI-H226, Non-small cell lung cancer, five-dose
# Outline: as §1
# U251 = conditions: Homo sapiens, U-251; for inhibition at 10 µM: U251 (CNS cancer), read-out: GI%; for GI50: U251, CNS cancer, five-dose
# Outline: as §1
# MALME-3 M = conditions: Homo sapiens; for inhibition at 10 µM: MALME-3 M (Melanoma), read-out: GI%; for GI50: MALME-3 M, Melanoma, five-dose
# Outline: as §1
# HS 578 T = conditions: Homo sapiens; for inhibition at 10 µM: HS 578 T (Breast cancer), read-out: GI%; for GI50: HS 578 T, Breast cancer, five-dose
# Outline: as §1
# SF-268 = conditions: Homo sapiens; for inhibition at 10 µM: SF-268 (CNS cancer), read-out: GI%; for GI50: SF-268, CNS cancer, five-dose
# Outline: as §1
# MOLT-4 = conditions: Homo sapiens; for inhibition at 10 µM: MOLT-4 (Leukemia), read-out: GI%; for GI50: MOLT-4, Leukemia, five-dose
# Outline: as §1
# HL-60(TB) = conditions: Homo sapiens; for inhibition at 10 µM: HL-60(TB) (Leukemia), read-out: GI%; for GI50: HL-60(TB), Leukemia, five-dose
# Outline: as §1
# A498 = conditions: Homo sapiens; for inhibition at 10 µM: A498 (Renal cancer), read-out: GI%; for GI50: A498, Renal cancer, five-dose
# Outline: as §1
# MDA-MB-231/ATCC = conditions: Homo sapiens; for inhibition at 10 µM: MDA-MB-231/ATCC (Breast cancer), read-out: GI%; for GI50: MDA-MB-231/ATCC, Breast cancer, five-dose
# Outline: as §1
# T-47D = conditions: Homo sapiens, T47D; for inhibition at 10 µM: T-47D (Breast cancer), read-out: GI%; for GI50: T-47D, Breast cancer, five-dose
# Outline: as §1
# SF-539 = conditions: Homo sapiens; for inhibition at 10 µM: SF-539 (CNS cancer), read-out: GI%; for GI50: SF-539, CNS cancer, five-dose
# Outline: as §1
# SK-MEL-5 = conditions: Homo sapiens; for inhibition at 10 µM: SK-MEL-5 (Melanoma), read-out: GI%; for GI50: SK-MEL-5, Melanoma, five-dose
# Outline: as §1
# HCT-15 = conditions: Homo sapiens; for inhibition at 10 µM: HCT-15 (Colon cancer), read-out: GI%; for GI50: HCT-15, Colon cancer, five-dose
# Outline: as §1
# MCF7 = conditions: Homo sapiens; for inhibition at 10 µM: MCF7 (Breast cancer), read-out: GI%; for GI50: MCF7, Breast cancer, five-dose
# Outline: as §1
# PC-3 = conditions: Homo sapiens; for inhibition at 10 µM: PC-3 (Prostate cancer), read-out: GI%
# Outline: as §1
# KM12 = conditions: Homo sapiens; for inhibition at 10 µM: KM12 (Colon cancer), read-out: GI%; for GI50: KM12, Colon cancer, five-dose
# Outline: as §1
# SNB-19 = conditions: Homo sapiens; for inhibition at 10 µM: SNB-19 (CNS cancer), read-out: GI%; for GI50: SNB-19, CNS cancer, five-dose
# Outline: as §1
# 786–0 = conditions: Homo sapiens; for inhibition at 10 µM: 786–0 (Renal cancer), read-out: GI%; for GI50: 786–0, Renal cancer, five-dose
# Outline: as §1
# SK-MEL-28 = conditions: Homo sapiens; for inhibition at 10 µM: SK-MEL-28 (Melanoma), read-out: GI%; for GI50: SK-MEL-28, Melanoma, five-dose
# Outline: as §1
# UACC-62 = conditions: Homo sapiens; for inhibition at 10 µM: UACC-62 (Melanoma), read-out: GI%; for GI50: UACC-62, Melanoma, five-dose
# Outline: as §1
# OVCAR-5 = conditions: Homo sapiens; for inhibition at 10 µM: OVCAR-5 (Ovarian cancer), read-out: GI%; for GI50: OVCAR-5, Ovarian cancer, five-dose
# Outline: as §1
# NCI-H23 = conditions: Homo sapiens; for inhibition at 10 µM: NCI-H23 (Non-small cell lung cancer), read-out: GI%; for GI50: NCI-H23, Non-small cell lung cancer, five-dose
# Outline: as §1
# UO-31 = conditions: Homo sapiens; for inhibition at 10 µM: UO-31 (Renal cancer), read-out: GI%; for GI50: UO-31, Renal cancer, five-dose
# Outline: as §1
smiles,measurement,setting,value
"COc1ccc(-c2nc3cc(C(=O)NN=Cc4cccc(OC)c4O)ccc3[nH]2)cc1 [8k, N'-(2-Hydroxy-3-methoxybenzylidene)-2-(4-methoxyphenyl)-1H-benzo[d]imidazole-5-carbohydrazide]",inhibition at 10 µM,SW-620,98.8%
same,GI50,SW-620,4.35 µM
same,inhibition at 10 µM,MDA-MB-468,> 100%
same,GI50,MDA-MB-468,1.95 µM
same,inhibition at 10 µM,RXF 393,> 100%
same,GI50,RXF 393,2.58 µM
same,inhibition at 10 µM,NCI-H226,82.2%
same,GI50,NCI-H226,3.14 µM
same,inhibition at 10 µM,U251,97.3%
same,GI50,U251,2.17 µM
same,inhibition at 10 µM,MALME-3 M,> 100%
same,GI50,MALME-3 M,1.09 µM
same,inhibition at 10 µM,HS 578 T,89.3%
same,GI50,HS 578 T,2.22 µM
same,inhibition at 10 µM,SF-268,> 100%
same,GI50,SF-268,2.16 µM
same,inhibition at 10 µM,MOLT-4,> 100%
same,GI50,MOLT-4,3.8 µM
same,inhibition at 10 µM,HL-60(TB),> 100%
same,GI50,HL-60(TB),7.66 µM
same,inhibition at 10 µM,A498,< 5%
same,GI50,A498,> 100 µM
same,inhibition at 10 µM,MDA-MB-231/ATCC,97.7%
same,GI50,MDA-MB-231/ATCC,2.8 µM
same,inhibition at 10 µM,T-47D,95%
same,GI50,T-47D,3.48 µM
same,inhibition at 10 µM,SF-539,> 100%
same,GI50,SF-539,2.8 µM
same,inhibition at 10 µM,SK-MEL-5,> 100%
same,GI50,SK-MEL-5,2.86 µM
same,inhibition at 10 µM,HCT-15,78.1%
same,GI50,HCT-15,3.35 µM
same,inhibition at 10 µM,MCF7,> 100%
same,GI50,MCF7,1.72 µM
same,inhibition at 10 µM,PC-3,87.9%
same,inhibition at 10 µM,KM12,> 100%
same,GI50,KM12,2.45 µM
same,inhibition at 10 µM,SNB-19,> 100%
same,GI50,SNB-19,3.33 µM
same,inhibition at 10 µM,786–0,> 100%
same,GI50,786–0,3.69 µM
same,inhibition at 10 µM,SK-MEL-28,> 100%
same,GI50,SK-MEL-28,3.32 µM
same,inhibition at 10 µM,UACC-62,98%
same,GI50,UACC-62,2.78 µM
same,inhibition at 10 µM,OVCAR-5,69.5%
same,GI50,OVCAR-5,7.72 µM
same,inhibition at 10 µM,NCI-H23,> 100%
same,GI50,NCI-H23,2.14 µM
same,inhibition at 10 µM,UO-31,83.2%
same,GI50,UO-31,3.34 µM
"COc1ccc(-c2nc3cc(C(=O)NN=Cc4cc(OC)ccc4OC)ccc3[nH]2)cc1 [8m, N'-(2,5-Dimethoxybenzylidene)-2-(4-methoxyphenyl)-1H-benzo[d]imidazole-5-carbohydrazide]",inhibition at 10 µM,SW-620,< 5%
same,inhibition at 10 µM,MDA-MB-468,16.2%
same,inhibition at 10 µM,RXF 393,15.2%
same,inhibition at 10 µM,NCI-H226,< 5%
same,inhibition at 10 µM,U251,9.71%
same,inhibition at 10 µM,MALME-3 M,18.3%
same,inhibition at 10 µM,HS 578 T,< 5%
same,inhibition at 10 µM,SF-268,9.02%
same,inhibition at 10 µM,MOLT-4,35.8%
same,inhibition at 10 µM,HL-60(TB),18.8%
same,inhibition at 10 µM,A498,< 5%
same,inhibition at 10 µM,MDA-MB-231/ATCC,14.3%
same,inhibition at 10 µM,T-47D,40.6%
same,inhibition at 10 µM,SF-539,32.6%
same,inhibition at 10 µM,SK-MEL-5,22.3%
same,inhibition at 10 µM,HCT-15,13.7%
same,inhibition at 10 µM,MCF7,20.6%
same,inhibition at 10 µM,PC-3,13.6%
same,inhibition at 10 µM,KM12,11.7%
same,inhibition at 10 µM,SNB-19,< 5%
same,inhibition at 10 µM,786–0,29%
same,inhibition at 10 µM,SK-MEL-28,5.7%
same,inhibition at 10 µM,UACC-62,6.39%
same,inhibition at 10 µM,OVCAR-5,< 5%
same,inhibition at 10 µM,NCI-H23,< 5%
same,inhibition at 10 µM,UO-31,9.12%
"O=C(NN=Cc1ccccc1O)c1ccc2[nH]c(-c3ccc(Cl)cc3)nc2c1 [8o, 2-(4-Chlorophenyl)-N'-(2-hydroxybenzylidene)-1H-benzo[d]imidazole-5-carbohydrazide]",inhibition at 10 µM,SW-620,> 100%
same,GI50,SW-620,0.33 µM
same,inhibition at 10 µM,MDA-MB-468,> 100%
same,GI50,MDA-MB-468,1.51 µM
same,inhibition at 10 µM,RXF 393,> 100%
same,GI50,RXF 393,0.79 µM
same,inhibition at 10 µM,NCI-H226,88.6%
same,GI50,NCI-H226,4.33 µM
same,inhibition at 10 µM,U251,> 100%
same,GI50,U251,0.83 µM
same,inhibition at 10 µM,MALME-3 M,> 100%
same,GI50,MALME-3 M,1.03 µM
same,inhibition at 10 µM,HS 578 T,> 100%
same,GI50,HS 578 T,0.26 µM
same,inhibition at 10 µM,SF-268,> 100%
same,GI50,SF-268,0.84 µM
same,inhibition at 10 µM,MOLT-4,60.8%
same,GI50,MOLT-4,0.28 µM
same,inhibition at 10 µM,HL-60(TB),47.1%
same,GI50,HL-60(TB),0.31 µM
same,inhibition at 10 µM,A498,53.9%
same,GI50,A498,8.1 µM
same,inhibition at 10 µM,MDA-MB-231/ATCC,> 100%
same,GI50,MDA-MB-231/ATCC,1.41 µM
same,GI50,T-47D,1.48 µM
same,inhibition at 10 µM,SF-539,> 100%
same,GI50,SF-539,0.37 µM
same,inhibition at 10 µM,SK-MEL-5,> 100%
same,GI50,SK-MEL-5,0.51 µM
same,inhibition at 10 µM,HCT-15,> 100%
same,GI50,HCT-15,0.2 µM
same,inhibition at 10 µM,MCF7,93.7%
same,GI50,MCF7,0.16 µM
same,inhibition at 10 µM,PC-3,78.5%
same,GI50,"PC-3; PC-3, Prostate cancer, five-dose",> 38.8 µM
same,inhibition at 10 µM,KM12,85.4%
same,GI50,KM12,1.24 µM
same,inhibition at 10 µM,SNB-19,> 100%
same,GI50,SNB-19,1.12 µM
same,inhibition at 10 µM,786–0,> 100%
same,GI50,786–0,0.83 µM
same,inhibition at 10 µM,SK-MEL-28,78.2%
same,GI50,SK-MEL-28,1.85 µM
same,inhibition at 10 µM,UACC-62,95.3%
same,GI50,UACC-62,1.69 µM
same,inhibition at 10 µM,OVCAR-5,55.9%
same,GI50,OVCAR-5,2.12 µM
same,inhibition at 10 µM,NCI-H23,> 100%
same,GI50,NCI-H23,0.31 µM
same,inhibition at 10 µM,UO-31,> 100%
same,GI50,UO-31,0.31 µM
"COc1ccc(OC)c(C=NNC(=O)c2ccc3[nH]c(-c4ccc(Cl)cc4)nc3c2)c1 [8t, 2-(4-Chlorophenyl)-N'-(2,5-dimethoxybenzylidene)-1H-benzo[d]imidazole-5-carbohydrazide]",inhibition at 10 µM,SW-620,7.98%
same,inhibition at 10 µM,MDA-MB-468,30.4%
same,inhibition at 10 µM,RXF 393,96.5%
same,inhibition at 10 µM,NCI-H226,35.7%
same,inhibition at 10 µM,U251,25.7%
same,inhibition at 10 µM,MALME-3 M,18.4%
same,inhibition at 10 µM,HS 578 T,48.8%
same,inhibition at 10 µM,SF-268,43%
same,inhibition at 10 µM,MOLT-4,58.9%
same,inhibition at 10 µM,HL-60(TB),12.9%
same,inhibition at 10 µM,A498,56.2%
same,inhibition at 10 µM,MDA-MB-231/ATCC,89.7%
same,inhibition at 10 µM,T-47D,61.8%
same,inhibition at 10 µM,SF-539,45.3%
same,inhibition at 10 µM,SK-MEL-5,68.8%
same,inhibition at 10 µM,HCT-15,58.2%
same,inhibition at 10 µM,MCF7,48.1%
same,inhibition at 10 µM,PC-3,58.5%
same,inhibition at 10 µM,KM12,23.3%
same,inhibition at 10 µM,SNB-19,45.7%
same,inhibition at 10 µM,786–0,26.6%
same,inhibition at 10 µM,SK-MEL-28,14.6%
same,inhibition at 10 µM,UACC-62,24.3%
same,inhibition at 10 µM,OVCAR-5,< 5%
same,inhibition at 10 µM,NCI-H23,33.9%
same,inhibition at 10 µM,UO-31,31.9%
